Consider three substances from patent US20060205669A1, “G-type peptides and other agents to ameliorate atherosclerosis and other pathologies” (The Regents of the University of California, priority 2004, published 2006).

In test [1] the test system is mice fed an atherogenic diet. Conditions: 20 μg daily injected; cited from earlier work.
In a further test the test system is mice. The conditions noted are these: injection into mice; cited from earlier work.
Another test deals with human LDL. Conditions: human LDL treated in vitro; cited from earlier work.
For the next test, the system named is human volunteers. Conditions: infusion into humans; cited from earlier work.
For another test, the system named is LDL receptor null mice. Briefly: HDL protective capacity in LDL receptor null mice given peptide in drinking water. The test is classed as in vivo. The conditions noted are these: 0.25 or 0.5 mg per ml drinking water, 24 or 48 hrs, mouse HDL at 100 μg cholesterol/ml, FIG. 3. As to the method: D-4F designated as F, or the apoJ peptide made from D amino acids (D-J336, designated as J) was added to the drinking water of LDL receptor null mice (4 per group) at 0.25 or 0.5 mg per ml of drinking water. After 24- or 48-hrs blood was collected from the mice and their HDL was isolated and tested for its ability to protect against LDL-induced monocyte chemotactic activity. Assay controls included culture wells that received no lipoproteins (no addition), or control human LDL alone (designated as LDL, 200 μg cholesterol/ml), or control LDL+control human HDL (designated as +HDL, 350 μg HDL cholesterol). For testing the mouse HDL, the control LDL was added together with mouse HDL (+F HDL or +J HDL) to artery wall cell cultures. The mouse HDL was added at 100 μg cholesterol/ml respectively.

Test [2] deals with ApoE null mice. Nature of the test: HDL and pre-beta HDL from apoE null mice fed solution-phase (fragment) synthesized D-4F: inhibition of LDL-induced monocyte chemotaxis. The test is classed as in vivo. The conditions noted are these: apoE null mice fed 5 micrograms solution-phase/fragment-synthesized D-4F, bled at 12 hours; FIG. 15. An excerpt: ApoE null mice were fed 5 micrograms of the D-4F synthesized as described above (Frgmnt) or the mice were given the same amount of mouse chow without D-4F (Chow). Twelve hours after the feeding was started, the mice were bled and their plasma was fractionated on FPLC.

The test system of test [3] is ApoE null mice. Nature of the test: Protection against LDL-induced monocyte chemotactic activity by HDL from apo E null mice given oral peptides. The test is classed as in vivo. Conditions: peptide in drinking water (D-4F 5-50, D-J336 20-50 μg per ml), 24 hrs, murine HDL at 100 μg cholesterol/ml, FIG. 4. How it is done:
FIG. 4 illustrates the effect of oral apoA-1 peptide mimetic and apoJ peptide on HDL protective capacity. ApoE null mice (4 per group) were provided with D-4F (designated as F) at 50, 30, 20, 10, 5 μg per ml of drinking water or apoJ peptide (designated as J) at 50, 30 or 20 μg per ml of drinking water. After 24 hrs blood was collected, plasma fractionated by FPLC and fractions containing LDL (designated as mLDL for murine LDL) and fractions containing HDL (designated as mHDL) were separately pooled and HDL protective capacity against LDL oxidation as determined by LDL-induced monocyte chemotactic activity was determined. For the assay controls the culture wells received no lipoproteins (no additions), mLDL alone (at 200 μg cholesterol/ml), or mLDL+standard normal human HDL (designated as Cont. h HDL, at 350 μg HDL cholesterol/ml).
For testing the murine HDL, mLDL together with murine HDL (+F mHDL or +J mHDL) were added to artery wall cell cultures. […] The murine HDL was used at 100 μg cholesterol/ml.

For test [4], the system named is Obese Zucker Rats. Nature of the test: Plasma glucose and lipid hydroperoxides (LOOH) in Obese Zucker Rats. The test is classed as in vivo. Conditions: Obese Zucker Rats 26 weeks, 5.0 mg/kg/day intraperitoneal, 10 days; FIG. 12. As to the method:
Obese Zucker Rats 26 weeks of age were bled and then treated with daily intraperitoneal injections of D-4F (5.0 mg/kg/day). After 10 days the rats were bled again plasma glucose and lipid hydroperoxides (LOOH) were determined. *p=0.027; ** p=0.0017.

Test [5] has as its system Obese Zucker Rats. Nature of the test: Balloon injury of the common carotid artery, intimal media ratio. The test is classed as in vivo. The conditions noted are these: 5 mg/kg/daily injected for 1 week before injury, sacrificed two weeks later, FIG. 13. How it is done:
FIG. 13 illustrates the effect of D4F on balloon injury of the carotid artery. Sixteen week old Obese Zucker Rats were injected with D-4F (5 mg/kg/daily) for 1 week at which time they underwent balloon injury of the common carotid artery. Two weeks later the rats were sacrificed and the intimal media ratio determined.
Sixteen week old Obese Zucker Rats were injected with D-4F (5 mg/kg/daily) for 1 week at which time they underwent balloon injury of the common carotid artery. Two weeks later the rats were sacrificed and the intimal media ratio determined.

Test [6] relates to ApoE null mice. Nature of the test: Trabecular bone mineral density in apoE null mice. The test is classed as in vivo. The conditions noted are these: drinking water, 6 weeks.

Entries after “also recorded” stand apart in the source; their conditions may differ.

Consider “Ac-D-W-L-K-A-F-Y-D-K-V-F-E-K-F-K-E-F-F-NH2 (Ac-DWLKAFYDKVFEKFKEFF-NH2) [Peptide 5F]”, for which the “LDL from PBS-injected mice compared with LDL from peptide-injected mice: oxidation and induction of monocyte chemotactic activity” value in test [1] was “more readily oxidized and more readily induced monocyte chemotactic activity”.
With “apo A-I: the major protein of HDL, apolipoprotein A-I”, the “LDL isolated after injection: oxidation by human artery wall cells and induction of monocyte chemotactic activity” value in the test with mice is “resistant to oxidation by human artery wall cells and did not induce monocyte chemotactic activity”. In addition, the “removal of seeding molecules (including HPODE and HPETE) from LDL” value in the test on human LDL is given as “removed seeding molecules from the LDL”. Besides, in the test on human volunteers, the “LDL isolated after infusion: oxidation by human artery wall cells and induction of monocyte chemotactic activity” value is “resistant to oxidation by human artery wall cells and did not induce monocyte chemotactic activity”.
“Ac-D-W-F-K-A-F-Y-D-K-V-A-E-K-F-K-E-A-F-NH2 (Ac-DWFKAFYDKVAEKFKEAF-NH2; also: D-amino acids, places not given here) [Peptide D-4F, apoA-I mimetic class A amphipathic helical peptide]”: the “HDL protective capacity against LDL-induced monocyte chemotactic activity” value with LDL receptor null mice is listed as “as active as 350 μg/ml of control human HDL”. For the same substance, in the test with ApoE null mice [2], the “biological activity: producing HDL and pre-beta HDL that inhibit LDL-induced monocyte chemotaxis” value is listed as “biologically active in mice; also recorded: very biologically active”. Also, the “HDL protective capacity against LDL oxidation (LDL-induced monocyte chemotactic activity)” value in the test on ApoE null mice [3] is “as active as 350 μg/ml of normal human HDL”. Moreover, in the test on Obese Zucker Rats [4], the “symptoms of diabetes (plasma glucose)” value is listed as “effective in mitigating symptoms of diabetes”. For the same substance, the “restenosis (intimal media ratio) after balloon injury of the common carotid artery” value with Obese Zucker Rats [5] is “reduced”. Further, the “trabecular bone mineral density” value in the test on ApoE null mice [6] was “dramatically increased”.
